Measurements published in ChEMBL document CHEMBL5724914, “Linking interpersonal differences in gut microbiota composition and drug biotransformation activity” (2024).

Conditions: human gut metagenome, 24 h, 2 µM
Note: call rule not given here.

| Bacterial Biotransformation | SMILES |
| --- | --- |
| Compound NOT metabolized | CC(C)NCC(O)COc1ccc(COCCOC(C)C)cc1.CC(C)NCC(O)COc1ccc(COCCOC(C)C)cc1.O=C(O)/C=C/C(=O)O (stereo not given) [BISOPROLOL FUMARATE] |
| Compound metabolized | CC(C)(C)NC[C@H](O)COc1ccccc1C1CCCC1.CC(C)(C)NC[C@H](O)COc1ccccc1C1CCCC1.O=S(=O)(O)O [PENBUTOLOL SULFATE] |

Conditions: human gut metagenome, 24 h, 2 µM
Remark: another data set of the same source

| Bacterial Biotransformation | SMILES |
| --- | --- |
| Compound NOT metabolized | CC(C)NCC(O)COc1ccc(COCCOC(C)C)cc1.CC(C)NCC(O)COc1ccc(COCCOC(C)C)cc1.O=C(O)/C=C/C(=O)O (stereo not given) [BISOPROLOL FUMARATE] |
| Compound metabolized | CC(C)(C)NC[C@H](O)COc1ccccc1C1CCCC1.CC(C)(C)NC[C@H](O)COc1ccccc1C1CCCC1.O=S(=O)(O)O [PENBUTOLOL SULFATE] |

Assay: (§1) The drug is tested on Z-022 corresponding to mouse gut metagenome with ENA study accession number: PRJEB37062 and ENA sample accession number: ERS12561821 for biotransformation under anaerobic condition. The drug concentrations were measured over 9 timepoints collected between 0 and 24 hours of incubation by liquid-chromatography-coupled mass spectrometry (LC–MS)
Conditions: 2 µM

| Bacterial Biotransformation | SMILES |
| --- | --- |
| Compound metabolized | CC(C)NCC(O)COc1ccc(COCCOC(C)C)cc1.CC(C)NCC(O)COc1ccc(COCCOC(C)C)cc1.O=C(O)/C=C/C(=O)O (stereo not given) [BISOPROLOL FUMARATE] |
| Compound metabolized | CC(C)(C)NC[C@H](O)COc1ccccc1C1CCCC1.CC(C)(C)NC[C@H](O)COc1ccccc1C1CCCC1.O=S(=O)(O)O [PENBUTOLOL SULFATE] |

Conditions: human gut metagenome, 24 h, 2 µM
Remark: another data set of the same source

| Bacterial Biotransformation | SMILES |
| --- | --- |
| Compound NOT metabolized | CC(C)NCC(O)COc1ccc(COCCOC(C)C)cc1.CC(C)NCC(O)COc1ccc(COCCOC(C)C)cc1.O=C(O)/C=C/C(=O)O (stereo not given) [BISOPROLOL FUMARATE] |
| Compound metabolized | CC(C)(C)NC[C@H](O)COc1ccccc1C1CCCC1.CC(C)(C)NC[C@H](O)COc1ccccc1C1CCCC1.O=S(=O)(O)O [PENBUTOLOL SULFATE] |

Conditions: human gut metagenome, 24 h, 2 µM
Remark: another data set of the same source

| Bacterial Biotransformation | SMILES |
| --- | --- |
| Compound NOT metabolized | CC(C)NCC(O)COc1ccc(COCCOC(C)C)cc1.CC(C)NCC(O)COc1ccc(COCCOC(C)C)cc1.O=C(O)/C=C/C(=O)O (stereo not given) [BISOPROLOL FUMARATE] |
| Compound metabolized | CC(C)(C)NC[C@H](O)COc1ccccc1C1CCCC1.CC(C)(C)NC[C@H](O)COc1ccccc1C1CCCC1.O=S(=O)(O)O [PENBUTOLOL SULFATE] |

Assay: as §1, with “WLS-350” for “Z-022”, “human” for “mouse”, “ERS12561789” for “ERS12561821”
Conditions: 2 µM

| Bacterial Biotransformation | SMILES |
| --- | --- |
| Compound NOT metabolized | CC(C)NCC(O)COc1ccc(COCCOC(C)C)cc1.CC(C)NCC(O)COc1ccc(COCCOC(C)C)cc1.O=C(O)/C=C/C(=O)O (stereo not given) [BISOPROLOL FUMARATE] |
| Compound metabolized | CC(C)(C)NC[C@H](O)COc1ccccc1C1CCCC1.CC(C)(C)NC[C@H](O)COc1ccccc1C1CCCC1.O=S(=O)(O)O [PENBUTOLOL SULFATE] |

Conditions: human gut metagenome, 24 h, 2 µM
Remark: another data set of the same source

| Bacterial Biotransformation | SMILES |
| --- | --- |
| Compound metabolized | CC(C)NCC(O)COc1ccc(COCCOC(C)C)cc1.CC(C)NCC(O)COc1ccc(COCCOC(C)C)cc1.O=C(O)/C=C/C(=O)O (stereo not given) [BISOPROLOL FUMARATE] |
| Compound metabolized | CC(C)(C)NC[C@H](O)COc1ccccc1C1CCCC1.CC(C)(C)NC[C@H](O)COc1ccccc1C1CCCC1.O=S(=O)(O)O [PENBUTOLOL SULFATE] |

Assay: as §1, with “Z-029” for “Z-022”, “rat” for “mouse”, “ERS12561828” for “ERS12561821”
Conditions: 2 µM

| Bacterial Biotransformation | SMILES |
| --- | --- |
| Compound NOT metabolized | CC(C)NCC(O)COc1ccc(COCCOC(C)C)cc1.CC(C)NCC(O)COc1ccc(COCCOC(C)C)cc1.O=C(O)/C=C/C(=O)O (stereo not given) [BISOPROLOL FUMARATE] |
| Compound NOT metabolized | CC(C)(C)NC[C@H](O)COc1ccccc1C1CCCC1.CC(C)(C)NC[C@H](O)COc1ccccc1C1CCCC1.O=S(=O)(O)O [PENBUTOLOL SULFATE] |

Conditions: human gut metagenome, 24 h, 2 µM
Remark: another data set of the same source

| Bacterial Biotransformation | SMILES |
| --- | --- |
| Compound metabolized | CC(C)NCC(O)COc1ccc(COCCOC(C)C)cc1.CC(C)NCC(O)COc1ccc(COCCOC(C)C)cc1.O=C(O)/C=C/C(=O)O (stereo not given) [BISOPROLOL FUMARATE] |
| Compound metabolized | CC(C)(C)NC[C@H](O)COc1ccccc1C1CCCC1.CC(C)(C)NC[C@H](O)COc1ccccc1C1CCCC1.O=S(=O)(O)O [PENBUTOLOL SULFATE] |

Conditions: human gut metagenome, 24 h, 2 µM
Remark: another data set of the same source

| Bacterial Biotransformation | SMILES |
| --- | --- |
| Compound NOT metabolized | CC(C)NCC(O)COc1ccc(COCCOC(C)C)cc1.CC(C)NCC(O)COc1ccc(COCCOC(C)C)cc1.O=C(O)/C=C/C(=O)O (stereo not given) [BISOPROLOL FUMARATE] |
| Compound metabolized | CC(C)(C)NC[C@H](O)COc1ccccc1C1CCCC1.CC(C)(C)NC[C@H](O)COc1ccccc1C1CCCC1.O=S(=O)(O)O [PENBUTOLOL SULFATE] |

Assay: as §1, with “Z-017” for “Z-022”, “ERS12561816” for “ERS12561821”
Conditions: 2 µM

| Bacterial Biotransformation | SMILES |
| --- | --- |
| Compound NOT metabolized | CC(C)NCC(O)COc1ccc(COCCOC(C)C)cc1.CC(C)NCC(O)COc1ccc(COCCOC(C)C)cc1.O=C(O)/C=C/C(=O)O (stereo not given) [BISOPROLOL FUMARATE] |
| Compound NOT metabolized | CC(C)(C)NC[C@H](O)COc1ccccc1C1CCCC1.CC(C)(C)NC[C@H](O)COc1ccccc1C1CCCC1.O=S(=O)(O)O [PENBUTOLOL SULFATE] |

Assay: as §1, with “WLS-220” for “Z-022”, “human” for “mouse”, “ERS12561769” for “ERS12561821”
Conditions: 2 µM

| Bacterial Biotransformation | SMILES |
| --- | --- |
| Compound metabolized | CC(C)NCC(O)COc1ccc(COCCOC(C)C)cc1.CC(C)NCC(O)COc1ccc(COCCOC(C)C)cc1.O=C(O)/C=C/C(=O)O (stereo not given) [BISOPROLOL FUMARATE] |
| Compound metabolized | CC(C)(C)NC[C@H](O)COc1ccccc1C1CCCC1.CC(C)(C)NC[C@H](O)COc1ccccc1C1CCCC1.O=S(=O)(O)O [PENBUTOLOL SULFATE] |

Assay: as §1, with “Z-004” for “Z-022”, “to” for “to mouse gut”, “ERS12561804” for “ERS12561821”
Conditions: 2 µM

| Bacterial Biotransformation | SMILES |
| --- | --- |
| Compound NOT metabolized | CC(C)NCC(O)COc1ccc(COCCOC(C)C)cc1.CC(C)NCC(O)COc1ccc(COCCOC(C)C)cc1.O=C(O)/C=C/C(=O)O (stereo not given) [BISOPROLOL FUMARATE] |
| Compound metabolized | CC(C)(C)NC[C@H](O)COc1ccccc1C1CCCC1.CC(C)(C)NC[C@H](O)COc1ccccc1C1CCCC1.O=S(=O)(O)O [PENBUTOLOL SULFATE] |

Assay: as §1, with “Z-005” for “Z-022”, “to” for “to mouse gut”, “ERS12561805” for “ERS12561821”
Conditions: 2 µM

| Bacterial Biotransformation | SMILES |
| --- | --- |
| Compound NOT metabolized | CC(C)NCC(O)COc1ccc(COCCOC(C)C)cc1.CC(C)NCC(O)COc1ccc(COCCOC(C)C)cc1.O=C(O)/C=C/C(=O)O (stereo not given) [BISOPROLOL FUMARATE] |
| Compound metabolized | CC(C)(C)NC[C@H](O)COc1ccccc1C1CCCC1.CC(C)(C)NC[C@H](O)COc1ccccc1C1CCCC1.O=S(=O)(O)O [PENBUTOLOL SULFATE] |

Assay: as §1, with “WLS-069” for “Z-022”, “human” for “mouse”, “ERS12561748” for “ERS12561821”
Conditions: 2 µM

| Bacterial Biotransformation | SMILES |
| --- | --- |
| Compound NOT metabolized | CC(C)NCC(O)COc1ccc(COCCOC(C)C)cc1.CC(C)NCC(O)COc1ccc(COCCOC(C)C)cc1.O=C(O)/C=C/C(=O)O (stereo not given) [BISOPROLOL FUMARATE] |
| Compound metabolized | CC(C)(C)NC[C@H](O)COc1ccccc1C1CCCC1.CC(C)(C)NC[C@H](O)COc1ccccc1C1CCCC1.O=S(=O)(O)O [PENBUTOLOL SULFATE] |

Assay: as §1, with “WLS-052” for “Z-022”, “human” for “mouse”, “ERS12561747” for “ERS12561821”
Conditions: 2 µM

| Bacterial Biotransformation | SMILES |
| --- | --- |
| Compound NOT metabolized | CC(C)NCC(O)COc1ccc(COCCOC(C)C)cc1.CC(C)NCC(O)COc1ccc(COCCOC(C)C)cc1.O=C(O)/C=C/C(=O)O (stereo not given) [BISOPROLOL FUMARATE] |
| Compound metabolized | CC(C)(C)NC[C@H](O)COc1ccccc1C1CCCC1.CC(C)(C)NC[C@H](O)COc1ccccc1C1CCCC1.O=S(=O)(O)O [PENBUTOLOL SULFATE] |

Assay: as §1, with “Z-006” for “Z-022”, “ERS12561806” for “ERS12561821”
Conditions: 2 µM

| Bacterial Biotransformation | SMILES |
| --- | --- |
| Compound NOT metabolized | CC(C)NCC(O)COc1ccc(COCCOC(C)C)cc1.CC(C)NCC(O)COc1ccc(COCCOC(C)C)cc1.O=C(O)/C=C/C(=O)O (stereo not given) [BISOPROLOL FUMARATE] |
| Compound NOT metabolized | CC(C)(C)NC[C@H](O)COc1ccccc1C1CCCC1.CC(C)(C)NC[C@H](O)COc1ccccc1C1CCCC1.O=S(=O)(O)O [PENBUTOLOL SULFATE] |

Conditions: human gut metagenome, 24 h, 2 µM
Remark: another data set of the same source

| Bacterial Biotransformation | SMILES |
| --- | --- |
| Compound NOT metabolized | CC(C)NCC(O)COc1ccc(COCCOC(C)C)cc1.CC(C)NCC(O)COc1ccc(COCCOC(C)C)cc1.O=C(O)/C=C/C(=O)O (stereo not given) [BISOPROLOL FUMARATE] |
| Compound metabolized | CC(C)(C)NC[C@H](O)COc1ccccc1C1CCCC1.CC(C)(C)NC[C@H](O)COc1ccccc1C1CCCC1.O=S(=O)(O)O [PENBUTOLOL SULFATE] |

Conditions: human gut metagenome, 24 h, 2 µM
Remark: another data set of the same source

| Bacterial Biotransformation | SMILES |
| --- | --- |
| Compound metabolized | CC(C)NCC(O)COc1ccc(COCCOC(C)C)cc1.CC(C)NCC(O)COc1ccc(COCCOC(C)C)cc1.O=C(O)/C=C/C(=O)O (stereo not given) [BISOPROLOL FUMARATE] |
| Compound metabolized | CC(C)(C)NC[C@H](O)COc1ccccc1C1CCCC1.CC(C)(C)NC[C@H](O)COc1ccccc1C1CCCC1.O=S(=O)(O)O [PENBUTOLOL SULFATE] |

Conditions: human gut metagenome, 24 h, 2 µM
Remark: another data set of the same source

| Bacterial Biotransformation | SMILES |
| --- | --- |
| Compound metabolized | CC(C)NCC(O)COc1ccc(COCCOC(C)C)cc1.CC(C)NCC(O)COc1ccc(COCCOC(C)C)cc1.O=C(O)/C=C/C(=O)O (stereo not given) [BISOPROLOL FUMARATE] |
| Compound metabolized | CC(C)(C)NC[C@H](O)COc1ccccc1C1CCCC1.CC(C)(C)NC[C@H](O)COc1ccccc1C1CCCC1.O=S(=O)(O)O [PENBUTOLOL SULFATE] |
